# Measured values: article PMC10691210 (Proceedings of the National Academy of Sciences of the …, 2023)
# Tested on: whole plants
# Test: Herbicidal activity on whole plants
# Assay type: in vivo
smiles,measurement,value
Cc1nc2c(F)c(F)ccc2cc1Oc1cccc(F)c1C(C)(C)O [ipflufenoquin],herbicidal effectiveness,ineffective
